Data taken from ChEMBL document CHEMBL1135136, “Carbonic anhydrase inhibitors. Preparation of potent sulfonamides inhibitors incorporating bile acid tails” (Bioorg Med Chem Lett, 2002).

Legend:
Carbonic anhydrase 4 = biological target: T1, Carbonic anhydrase 4 (Bos taurus, UniProt Q95323)
T1 sequence (Q95323 whole entry): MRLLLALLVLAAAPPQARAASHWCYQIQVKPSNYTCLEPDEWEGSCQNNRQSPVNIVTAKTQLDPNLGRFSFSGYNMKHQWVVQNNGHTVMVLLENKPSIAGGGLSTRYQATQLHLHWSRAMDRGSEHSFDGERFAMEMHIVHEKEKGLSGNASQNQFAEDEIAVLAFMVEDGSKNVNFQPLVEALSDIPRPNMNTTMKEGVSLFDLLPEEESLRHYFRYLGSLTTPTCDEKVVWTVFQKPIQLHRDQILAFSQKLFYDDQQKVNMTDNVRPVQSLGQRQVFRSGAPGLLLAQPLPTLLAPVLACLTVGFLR
Description: Inhibitory activity against bovine carbonic anhydrase IV (CA4), obtained from bovine lung microsomes

Carbonic anhydrase 1 = Carbonic anhydrase 1 (Homo sapiens, UniProt P00915)
Description: Inhibitory activity against human recombinant carbonic anhydrase I (CA1)

Carbonic anhydrase 2 = Carbonic anhydrase 2 (Homo sapiens, UniProt P00918)
Description: Inhibitory activity against human recombinant carbonic anhydrase II (CA2)

Carbonic anhydrase 1, sequence (P00915 whole entry): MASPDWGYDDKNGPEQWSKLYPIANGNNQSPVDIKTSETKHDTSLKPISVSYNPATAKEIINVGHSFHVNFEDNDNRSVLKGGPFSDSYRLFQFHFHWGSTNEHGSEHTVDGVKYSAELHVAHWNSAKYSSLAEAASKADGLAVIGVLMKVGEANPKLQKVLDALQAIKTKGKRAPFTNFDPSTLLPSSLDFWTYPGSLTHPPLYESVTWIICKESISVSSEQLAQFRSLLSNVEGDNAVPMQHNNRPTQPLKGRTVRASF

Row | SMILES | Ki (Carbonic anhydrase 4) [nM] | Ki (Carbonic anhydrase 1) [nM] | Ki (Carbonic anhydrase 2) [nM]
1 | C[C@H](CCC(=O)NNc1ccc(S(N)(=O)=O)cc1)[C@H]1CC[C@H]2[C@@H]3CC[C@@H]4C[C@H](O)CC[C@]4(C)[C@H]3C[C@H](O)[C@]12C | 920 | 21300 | 310
2 | C[C@H](CCC(=O)Nc1ccc(S(N)(=O)=O)cc1)[C@H]1CC[C@H]2[C@@H]3[C@H](O)C[C@@H]4C[C@H](O)CC[C@]4(C)[C@H]3C[C@H](O)[C@]12C | 430 | 21000 | 210
3 | C[C@H](CCC(=O)Nc1ccc(S(N)(=O)=O)cc1)[C@H]1CC[C@H]2[C@@H]3C(=O)C[C@@H]4CC(=O)CC[C@]4(C)[C@H]3CC(=O)[C@]12C | 147 | 3700 | 70
4 | C[C@H](CCC(=O)NNc1ccc(S(N)(=O)=O)cc1)[C@H]1CC[C@H]2[C@@H]3CC[C@@H]4C[C@H](O)CC[C@]4(C)[C@H]3CC[C@]12C | 650 | 15000 | 280
5 | C[C@H](CCC(=O)OCc1ccc(S(N)(=O)=O)cc1)[C@H]1CC[C@H]2[C@@H]3[C@H](O)C[C@@H]4C[C@H](O)CC[C@]4(C)[C@H]3C[C@H](O)[C@]12C | 280 | 1200 | 97
6 | C[C@H](CCC(=O)Nc1ccccc1S(N)(=O)=O)[C@H]1CC[C@H]2[C@@H]3CC[C@@H]4C[C@H](O)CC[C@]4(C)[C@H]3CC[C@]12C | 750 | 9200 | 270
7 | C[C@H](CCC(=O)/N=c1\sc(S(N)(=O)=O)nn1C)[C@H]1CC[C@H]2[C@@H]3[C@@H](O)C[C@@H]4C[C@H](O)CC[C@]4(C)[C@H]3CC[C@]12C | 17 | 54 | 2
8 | C[C@H](CCC(=O)/N=c1\sc(S(N)(=O)=O)nn1C)[C@H]1CC[C@H]2[C@@H]3C(=O)C[C@@H]4CC(=O)CC[C@]4(C)[C@H]3CC(=O)[C@]12C | 8 | 29 | 1
9 | C[C@H](CCC(=O)NNc1ccc(S(N)(=O)=O)cc1)[C@H]1CC[C@H]2[C@@H]3[C@H](O)C[C@@H]4C[C@H](O)CC[C@]4(C)[C@H]3C[C@H](O)[C@]12C | 1050 | 32100 | 315
10 | C[C@H](CCC(=O)Nc1ccc(S(N)(=O)=O)cc1)[C@H]1CC[C@H]2[C@@H]3[C@@H](O)C[C@@H]4C[C@H](O)CC[C@]4(C)[C@H]3CC[C@]12C | 164 | 4000 | 71
11 | C[C@H](CCC(=O)Nc1ccccc1S(N)(=O)=O)[C@H]1CC[C@H]2[C@@H]3C(=O)C[C@@H]4CC(=O)CC[C@]4(C)[C@H]3CC(=O)[C@]12C | 505 | 8100 | 170
12 | C[C@H](CCC(=O)Nc1ccc(S(N)(=O)=O)cc1)[C@H]1CC[C@H]2[C@@H]3CC[C@@H]4C[C@H](O)CC[C@]4(C)[C@H]3CC[C@]12C | 280 | 6300 | 106
13 | C[C@H](CCC(=O)Nc1ccc(S(N)(=O)=O)cc1I)[C@H]1CC[C@H]2[C@@H]3[C@H](O)C[C@@H]4C[C@H](O)CC[C@]4(C)[C@H]3C[C@H](O)[C@]12C | 104 | 510 | 53
14 | C[C@H](CCC(=O)Nc1ccc(S(N)(=O)=O)cc1F)[C@H]1CC[C@H]2[C@@H]3CC[C@@H]4C[C@H](O)CC[C@]4(C)[C@H]3C[C@H](O)[C@]12C | 96 | 780 | 42
15 | C[C@H](CCC(=O)OCCc1ccc(S(N)(=O)=O)cc1)[C@H]1CC[C@H]2[C@@H]3[C@H](O)C[C@@H]4C[C@H](O)CC[C@]4(C)[C@H]3CC[C@]12C | 320 | 1100 | 90
16 | C[C@H](CCC(=O)Nc1ccccc1S(N)(=O)=O)[C@H]1CC[C@H]2[C@@H]3[C@@H](O)C[C@@H]4C[C@H](O)CC[C@]4(C)[C@H]3CC[C@]12C | 500 | 8400 | 180
17 | C[C@H](CCC(=O)NCCc1ccc(S(N)(=O)=O)cc1)[C@H]1CC[C@H]2[C@@H]3C(=O)C[C@@H]4CC(=O)CC[C@]4(C)[C@H]3CC(=O)[C@]12C | 29 | 285 | 18
18 | C[C@H](CCC(=O)Nc1cccc(S(N)(=O)=O)c1)[C@H]1CC[C@H]2[C@@H]3CC[C@@H]4C[C@H](O)CC[C@]4(C)[C@H]3CC[C@]12C | 740 | 9500 | 210
19 | C[C@H](CCC(=O)Nc1ccc(S(N)(=O)=O)cc1Cl)[C@H]1CC[C@H]2[C@@H]3[C@H](O)C[C@@H]4C[C@H](O)CC[C@]4(C)[C@H]3CC[C@]12C | 150 | 950 | 80
20 | C[C@H](CCC(=O)Oc1ccc2nc(S(N)(=O)=O)sc2c1)[C@H]1CC[C@H]2[C@@H]3CC[C@@H]4C[C@H](O)CC[C@]4(C)[C@H]3CC[C@]12C | 9 | 40 | 2
21 | C[C@H](CCC(=O)Nc1c(S(N)(=O)=O)cc(S(N)(=O)=O)c(Cl)c1Cl)[C@H]1CC[C@H]2[C@@H]3[C@H](O)C[C@@H]4C[C@H](O)CC[C@]4(C)[C@H]3C[C@H](O)[C@]12C | 97 | 400 | 21
22 | C[C@H](CCC(=O)Nc1ccccc1S(N)(=O)=O)[C@H]1CC[C@H]2[C@@H]3[C@H](O)C[C@@H]4C[C@H](O)CC[C@]4(C)[C@H]3CC[C@]12C | 900 | 22100 | 245
23 | C[C@H](CCC(=O)NCCc1ccc(S(N)(=O)=O)cc1)[C@H]1CC[C@H]2[C@@H]3CC[C@@H]4C[C@H](O)CC[C@]4(C)[C@H]3C[C@H](O)[C@]12C | 245 | 1500 | 77
24 | C[C@H](CCC(=O)Nc1cccc(S(N)(=O)=O)c1)[C@H]1CC[C@H]2[C@@H]3CC[C@@H]4C[C@H](O)CC[C@]4(C)[C@H]3C[C@H](O)[C@]12C | 980 | 12700 | 230

The remaining lines, values ahead:

Row | Ki (Carbonic anhydrase 4) [nM] | Ki (Carbonic anhydrase 1) [nM] | Ki (Carbonic anhydrase 2) [nM] | SMILES
25 | 70 | 650 | 41 | C[C@H](CCC(=O)NCCc1ccc(S(N)(=O)=O)cc1)[C@H]1CC[C@H]2[C@@H]3CC[C@@H]4C[C@H](O)CC[C@]4(C)[C@H]3CC[C@]12C
26 | 16 | 48 | 0.9 | C[C@H](CCC(=O)Nc1nnc(S(N)(=O)=O)s1)[C@H]1CC[C@H]2[C@@H]3[C@@H](O)C[C@@H]4C[C@H](O)CC[C@]4(C)[C@H]3CC[C@]12C
27 | 19 | 61 | 10 | C[C@H](CCC(=O)Nc1ccc(S(N)(=O)=O)cc1I)[C@H]1CC[C@H]2[C@@H]3C(=O)C[C@@H]4CC(=O)CC[C@]4(C)[C@H]3CC(=O)[C@]12C
28 | 87 | 130 | 17 | C[C@H](CCC(=O)Nc1c(S(N)(=O)=O)cc(S(N)(=O)=O)c(Cl)c1Cl)[C@H]1CC[C@H]2[C@@H]3CC[C@@H]4C[C@H](O)CC[C@]4(C)[C@H]3CC[C@]12C
29 | 69 | 120 | 32 | C[C@H](CCC(=O)Nc1ccc(S(N)(=O)=O)cc1I)[C@H]1CC[C@H]2[C@@H]3CC[C@@H]4C[C@H](O)CC[C@]4(C)[C@H]3CC[C@]12C
30 | 60 | 600 | 35 | C[C@H](CCC(=O)Nc1ccc(S(N)(=O)=O)cc1Br)[C@H]1CC[C@H]2[C@@H]3[C@H](O)C[C@@H]4C[C@H](O)CC[C@]4(C)[C@H]3C[C@H](O)[C@]12C
31 | 19 | 200 | 2.1 | C[C@H](CCC(=O)NCCC(=O)Nc1nnc(S(N)(=O)=O)s1)[C@H]1CC[C@H]2[C@@H]3CC[C@@H]4C[C@H](O)CC[C@]4(C)[C@H]3CC[C@]12C
32 | 6 | 31 | 0.7 | C[C@H](CCC(=O)Oc1ccc2nc(S(N)(=O)=O)sc2c1)[C@H]1CC[C@H]2[C@@H]3[C@@H](O)C[C@@H]4C[C@H](O)CC[C@]4(C)[C@H]3CC[C@]12C
33 | 23 | 91 | 10 | C[C@H](CCC(=O)Nc1ccc(S(N)(=O)=O)cc1Br)[C@H]1CC[C@H]2[C@@H]3[C@@H](O)C[C@@H]4C[C@H](O)CC[C@]4(C)[C@H]3CC[C@]12C
34 | 6 | 30 | 0.8 | C[C@H](CCC(=O)OCCOc1ccc2nc(S(N)(=O)=O)sc2c1)[C@H]1CC[C@H]2[C@@H]3C(=O)C[C@@H]4CC(=O)CC[C@]4(C)[C@H]3CC(=O)[C@]12C
35 | 45 | 268 | 2 | C[C@H](CCC(=O)NCCC(=O)Nc1nnc(S(N)(=O)=O)s1)[C@H]1CC[C@H]2[C@@H]3[C@H](O)C[C@@H]4C[C@H](O)CC[C@]4(C)[C@H]3CC[C@]12C
36 | 28 | 66 | 9 | C[C@H](CCC(=O)Nc1ccc(S(N)(=O)=O)cc1Br)[C@H]1CC[C@H]2[C@@H]3C(=O)C[C@@H]4CC(=O)CC[C@]4(C)[C@H]3CC(=O)[C@]12C
37 | 12 | 56 | 6.5 | C[C@H](CCC(=O)Nc1ccc2nc(S(N)(=O)=O)sc2c1)[C@H]1CC[C@H]2[C@@H]3CC[C@@H]4C[C@H](O)CC[C@]4(C)[C@H]3C[C@H](O)[C@]12C
